Values quoted from earlier work as cited in US5047247A, “Dispersible tablets of dihydroergotoxine methanesulfonate and of acid addition salts thereof” (LEK, priority 1988, dated 1991).

Row | Substance | solubility in water, in words
1 | dihydroergotoxine methanesulphonate | poorly soluble in water
2 | dihydroergotoxine | poorly soluble in water
